Laboratory results: US20240254435A1, “VARIANT BACTERIAL STRAINS AND PROCESSES FOR PROTEIN OR BIOMASS PRODUCTION” (Solar Foods Oy, priority 2021, published 2024)

How the values were obtained:
[1] = Antibiotic susceptibility (MIC), broth microdilution / agar dilution, CLSI M07; conditions: for Minimum Inhibitory Concentration (MIC): VTT-E-193585, 48 h ± 1 h, aerobic, +35±2° C., cation-adjusted Mueller Hinton Broth, fosfomycin by agar dilution; for MIC values for VTT-E-193585 compared to E. coli ATCC 25922: comparison in words
[2] = Antibiotic susceptibility (MIC), quality control strain; conditions: E. coli ATCC 25922, 18 h ± 2 h, aerobic, +35±2° C.

Compound: CC1(C)S[C@@H]2[C@H](NC(=O)[C@H](N)c3ccccc3)C(=O)N2[C@H]1C(=O)O [Ampicillin]
- Minimum Inhibitory Concentration (MIC) [1]: 16 µg/mL
- MIC values for VTT-E-193585 compared to E. coli ATCC 25922 [1]: higher
- Minimum Inhibitory Concentration (MIC) [2]: 8 µg/mL

Compound: C[C@@H]1O[C@@H]1P(=O)(O)O [Fosfomycin]
- Minimum Inhibitory Concentration (MIC) [1]: 32 µg/mL
- MIC values for VTT-E-193585 compared to E. coli ATCC 25922 [1]: higher
- Minimum Inhibitory Concentration (MIC) [2]: 0.5 µg/mL

Compound: [H]/N=C(/N)N[C@H]1[C@H](O)[C@@H](O)[C@H](O[C@@H]2O[C@@H](C)[C@](O)(C=O)[C@H]2O[C@@H]2O[C@@H](CO)[C@H](O)[C@@H](O)[C@@H]2NC)[C@@H](N/C(N)=N\[H])[C@@H]1O [Streptomycin]
- Minimum Inhibitory Concentration (MIC) [1]: 0.5 µg/mL
- MIC values for VTT-E-193585 compared to E. coli ATCC 25922 [1]: lower or comparable
- Minimum Inhibitory Concentration (MIC) [2]: 4 µg/mL

Compound: Colistin
- Minimum Inhibitory Concentration (MIC) [1]: 4 µg/mL
- MIC values for VTT-E-193585 compared to E. coli ATCC 25922 [1]: higher
- Minimum Inhibitory Concentration (MIC) [2]: 2 µg/mL

Compound: Gentamicin
- Minimum Inhibitory Concentration (MIC) [1]: 0.5 µg/mL
- MIC values for VTT-E-193585 compared to E. coli ATCC 25922 [1]: lower or comparable
- Minimum Inhibitory Concentration (MIC) [2]: 0.5 µg/mL
